The nature of the series: Stability of compound (1a) dissolved in organic solvents, formation of the hydrolysis product (ABEI-glutaric acid) monitored by HPLC. Type of series: physicochemical. On the procedure:
The stability of compound (1a) dissolved in organic solvents (DMSO, acetonitrile) was evaluated at two different storage temperatures, -30°C and +4°C, by monitoring the formation of the hydrolysis product (ABEI-glutaric acid) using a chromatographic HPLC system.
Within the limits of reproducibility of the experimental determination, less than 2% of compound (1a) was hydrolysed to glutaric acid after 270 days at -30°C (Fig. 9), while less than 7% of compound (1a) was hydrolysed to acid at +4°C after 38 days (Fig. 10). This compares to the reported high instability of equivalent NHS esters which have half-lives of hours under physiological pH conditions. At 0°C and at pH 7, the half-life is typically 4-5 h [Lomant, A.J., Fairbanks, G. J. Mol. Biol. 1976, 104, 243-261], at pH 8.6 and 4°C this falls to only 10 min [Cuatrecaseas, P., Parikh, I. Biochemistry 1972, 11, 2291-2299].

Take “N-(4-Aminobutyl)-N-ethylisoluminol anhydroglutarate [compound (1a)]”: the “compound (1a) hydrolysed to glutaric acid” value (solution (DMSO), after 270 days at -30°C (Fig. 9)) is given as “less than 2%”. Further, the “compound (1a) hydrolysed to acid” value (solution (DMSO), at +4°C after 38 days (Fig. 10)) is “less than 7%”. The “stability of solution (in DMSO)” value (stored at from +4°C to -30°C) is recorded as “highly stable”.

(Values after patent EP2457916A1, “Compound for the covalent attachment of the chemiluminescent probe N-(4-Aminobutyl)-N-ethylisoluminol (ABEI) to target molecules and uses thereof” (DiaSorin S.p.A., priority 2010, dated 2012).)
